Measurements as given in patent publication US8518963B2, “Therapeutic polymeric nanoparticle compositions with high glass transition temperature or high molecular weight copolymers” (BIND Therapeutics, Inc., priority 2009, dated 2013).

Experiments:
[1] = system: indomethacin induced inflammatory bowel disease in rats; assay: Rat model of inflammatory bowel disease (IBD); type: in vivo; details: 5 days, female rats
Protocol: Budesonide and Budesonide PTNP were compared in a model of inflammatory bowel disease (IBD) as an efficacy model of inflammation. In this model, female rats were given two subcutaneous doses of 8 mg/kg indomethacin at 24 hour intervals to induce lesions resembling those occurring in Crohn's disease in the small intestine. Intravenous daily treatment with vehicle, budesonide (0.02, 0.2 or 2 mg/kg) or budesonide PTNP (0.02, 0.2 or 2 mg/kg) or oral daily treatment with Dexamethasone (0.1 mg/kg) was initiated one day before indomethacin treatment (day −1) and continued for 5 total days (days −1 to 3). Animals were euthanized on day 4, and a 10 cm area at risk in the small intestine was scored for gross pathology and weighed.
Using a disease scoring system in which a score of 0 is normal, and a score of 5 indicates death due to IBD symptoms, normal rats have an average score of 0, and an average intestinal weight of 0.488 g.

[2] = Rat pharmacokinetics after a single intravenous dose; type: in vivo, Rats (male Sprague Dawley); details: single intravenous dose 0.5 mg/kg, plasma, individual rats
Protocol: Rats (male Sprague Dawley, approximately 300 g with jugular cannulae) were given a single intravenous dose of 0.5 mg/kg of budesonide or passively targeted nanoparticles (PTNP) encapsulating budesonide (prepared as in Example 16) at time=0. At various times after dosing, blood samples were collected from the jugular cannulae into tubes containing lithium heparin, and plasma was prepared. Plasma levels were determined by extraction of the budesonide from plasma followed by LCMS analysis.

## CCCC1O[C@@H]2C[C@H]3[C@@H]4CCC5=CC(=O)C=C[C@]5(C)[C@H]4[C@@H](O)C[C@]3(C)[C@]2(C(=O)CO)O1 (some centres unmarked) [Budesonide, budesonide]
[1]; 0.02 mg/kg intravenous daily
  decrease of intestinal scores towards normal: 52%
  decrease of small intestine weights toward normal: 52%
[1]; 0.2 mg/kg intravenous daily
  decrease of intestinal scores towards normal: 53%
  decrease of small intestine weights toward normal: 53%
[1]; 2 mg/kg intravenous daily
  decrease of intestinal scores towards normal: 59%
  decrease of small intestine weights toward normal: 59%
[2]
  AUCinf: 159 ng·h/mL
  t1/2: 45 min
